# ChEMBL document CHEMBL4627322, “Design and synthesis of a novel class EGFR/HER2 dual inhibitors containing tricyclic oxazine fused quinazolines scaffold” (Bioorg Med Chem Lett, 2020)
# Key:
# NCI-N87 [1] = assay: cells; assay type: functional, cell-based; conditions: Homo sapiens, NCI-N87, 72 h
# Description: Antiproliferative activity against human NCI-N87 cells overexpressing HER2 assessed as cell growth inhibition measured after 72 hrs by MTT assay
# [2] = biological target: T1, Epidermal growth factor receptor (Homo sapiens, UniProt P00533); assay type: cell-based, KB
# Description: Inhibition of EGFR in human KB cells assessed as reduction in EGF-stimulated EGFR phosphorylation preincubated for 1 hr followed by EGF stimulation and measured after 6 mins by ELISA
# [3] = biological target: T2, Receptor tyrosine-protein kinase erbB-2 (Homo sapiens, UniProt P04626); assay: Potency index, ratio of gefitinib IC50 to test compound IC50 for inhibition of HER2 (unknown origin) using FAM-labeled peptide as substrate preincubated for 10 mins followed by substrate addition measured after 40 mins in presence of ATP by caliper mobility shift assay
# [4] = biological target: T2, Receptor tyrosine-protein kinase erbB-2; assay: Inhibition of HER2 (unknown origin) using FAM-labeled peptide as substrate preincubated for 10 mins followed by substrate addition measured after 40 mins in presence of ATP by caliper mobility shift assay
# [5] = biological target: T2, Receptor tyrosine-protein kinase erbB-2; assay: Potency index, ratio of lapatinib IC50 to test compound IC50 for inhibition of HER2 (unknown origin) using FAM-labeled peptide as substrate preincubated for 10 mins followed by substrate addition measured after 40 mins in presence of ATP by caliper mobility shift assay
# [6] = biological target: T2, Receptor tyrosine-protein kinase erbB-2; assay: Potency index, ratio of erlotinib IC50 to test compound IC50 for inhibition of HER2 (unknown origin) using FAM-labeled peptide as substrate preincubated for 10 mins followed by substrate addition measured after 40 mins in presence of ATP by caliper mobility shift assay
# [7] = biological target: T1, Epidermal growth factor receptor
# Description: Inhibition of EGFR (unknown origin) using FAM-labeled peptide as substrate preincubated for 10 mins followed by substrate addition measured after 40 mins in presence of ATP by caliper mobility shift assay
# NCI-H1975 [8] = assay: Potency index, ratio of erlotinib IC50 to test compound IC50 for antiproliferative activity against human NCI-H1975 cells harboring EGFR L858R/T790M mutant assessed as cell growth inhibition measured after 72 hrs by MTT assay; assay type: functional
# [9] = biological target: T1, Epidermal growth factor receptor; assay: Potency index, ratio of lapatinib IC50 to test compound IC50 for inhibition of EGFR (unknown origin) using FAM-labeled peptide as substrate preincubated for 10 mins followed by substrate addition measured after 40 mins in presence of ATP by caliper mobility shift assay
# NCI-H1975 [10] = assay: Potency index, ratio of gefitinib IC50 to test compound IC50 for antiproliferative activity against human NCI-H1975 cells harboring EGFR L858R/T790M mutant assessed as cell growth inhibition measured after 72 hrs by MTT assay; assay type: functional
# Calu-3 [11] = assay: cells; assay type: functional, cell-based; conditions: Homo sapiens, Calu-3, 72 h
# Description: Antiproliferative activity against human Calu3 cells overexpressing HER2 assessed as cell growth inhibition measured after 72 hrs by MTT assay
# NCI-H1975 [12] = assay: Potency index, ratio of lapatinib IC50 to test compound IC50 for antiproliferative activity against human NCI-H1975 cells harboring EGFR L858R/T790M mutant assessed as cell growth inhibition measured after 72 hrs by MTT assay; assay type: functional
# A-431 [13] = assay: cells; assay type: functional, cell-based; conditions: Homo sapiens, A-431, 72 h
# Description: Antiproliferative activity against human A431 cells overexpressing EGFR assessed as cell growth inhibition measured after 72 hrs by MTT assay
# BT-474 [14] = assay: cells; assay type: functional, cell-based; conditions: Homo sapiens, BT-474, 72 h
# Description: Antiproliferative activity against human BT474 cells overexpressing HER2 assessed as cell growth inhibition measured after 72 hrs by MTT assay
# NCI-H1975 [15] = assay: cells; assay type: functional, cell-based; conditions: Homo sapiens, NCI-H1975, 72 h
# Description: Antiproliferative activity against human NCI-H1975 cells harboring EGFR L858R/T790M mutant assessed as cell growth inhibition measured after 72 hrs by MTT assay
# A-431 [16] = assay: Potency index, ratio of erlotinib IC50 to test compound IC50 for antiproliferative activity against human A431 cells overexpressing EGFR assessed as cell growth inhibition measured after 72 hrs by MTT assay; assay type: functional
# Calu-3 [17] = assay: Potency index, ratio of gefitinib IC50 to test compound IC50 for antiproliferative activity against human Calu3 cells overexpressing HER2 assessed as cell growth inhibition measured after 72 hrs by MTT assay; assay type: functional
# BT-474 [18] = assay: Potency index, ratio of erlotinib IC50 to test compound IC50 for antiproliferative activity against human BT474 cells overexpressing HER2 assessed as cell growth inhibition measured after 72 hrs by MTT assay; assay type: functional
# Calu-3 [19] = assay: Potency index, ratio of lapatinib IC50 to test compound IC50 for antiproliferative activity against human Calu3 cells overexpressing HER2 assessed as cell growth inhibition measured after 72 hrs by MTT assay; assay type: functional
# NCI-N87 [20] = assay: Potency index, ratio of lapatinib IC50 to test compound IC50 for antiproliferative activity against human NCI-N87 cells overexpressing HER2 assessed as cell growth inhibition measured after 72 hrs by MTT assay; assay type: functional
# BT-474 [21] = assay: Potency index, ratio of lapatinib IC50 to test compound IC50 for antiproliferative activity against human BT474 cells overexpressing HER2 assessed as cell growth inhibition measured after 72 hrs by MTT assay; assay type: functional
# BT-474 [22] = assay: Potency index, ratio of gefitinib IC50 to test compound IC50 for antiproliferative activity against human BT474 cells overexpressing HER2 assessed as cell growth inhibition measured after 72 hrs by MTT assay; assay type: functional
# Calu-3 [23] = assay: Potency index, ratio of erlotinib IC50 to test compound IC50 for antiproliferative activity against human Calu3 cells overexpressing HER2 assessed as cell growth inhibition measured after 72 hrs by MTT assay; assay type: functional
# A-431 [24] = assay: Potency index, ratio of lapatinib IC50 to test compound IC50 for antiproliferative activity against human A431 cells overexpressing EGFR assessed as cell growth inhibition measured after 72 hrs by MTT assay; assay type: functional
# NCI-N87 [25] = assay: Potency index, ratio of gefitinib IC50 to test compound IC50 for antiproliferative activity against human NCI-N87 cells overexpressing HER2 assessed as cell growth inhibition measured after 72 hrs by MTT assay; assay type: functional
# A-431 [26] = assay: Potency index, ratio of gefitinib IC50 to test compound IC50 for antiproliferative activity against human A431 cells overexpressing EGFR assessed as cell growth inhibition measured after 72 hrs by MTT assay; assay type: functional
# NCI-N87 [27] = assay: Potency index, ratio of erlotinib IC50 to test compound IC50 for antiproliferative activity against human NCI-N87 cells overexpressing HER2 assessed as cell growth inhibition measured after 72 hrs by MTT assay; assay type: functional
# T1 sequence (P00533 whole entry): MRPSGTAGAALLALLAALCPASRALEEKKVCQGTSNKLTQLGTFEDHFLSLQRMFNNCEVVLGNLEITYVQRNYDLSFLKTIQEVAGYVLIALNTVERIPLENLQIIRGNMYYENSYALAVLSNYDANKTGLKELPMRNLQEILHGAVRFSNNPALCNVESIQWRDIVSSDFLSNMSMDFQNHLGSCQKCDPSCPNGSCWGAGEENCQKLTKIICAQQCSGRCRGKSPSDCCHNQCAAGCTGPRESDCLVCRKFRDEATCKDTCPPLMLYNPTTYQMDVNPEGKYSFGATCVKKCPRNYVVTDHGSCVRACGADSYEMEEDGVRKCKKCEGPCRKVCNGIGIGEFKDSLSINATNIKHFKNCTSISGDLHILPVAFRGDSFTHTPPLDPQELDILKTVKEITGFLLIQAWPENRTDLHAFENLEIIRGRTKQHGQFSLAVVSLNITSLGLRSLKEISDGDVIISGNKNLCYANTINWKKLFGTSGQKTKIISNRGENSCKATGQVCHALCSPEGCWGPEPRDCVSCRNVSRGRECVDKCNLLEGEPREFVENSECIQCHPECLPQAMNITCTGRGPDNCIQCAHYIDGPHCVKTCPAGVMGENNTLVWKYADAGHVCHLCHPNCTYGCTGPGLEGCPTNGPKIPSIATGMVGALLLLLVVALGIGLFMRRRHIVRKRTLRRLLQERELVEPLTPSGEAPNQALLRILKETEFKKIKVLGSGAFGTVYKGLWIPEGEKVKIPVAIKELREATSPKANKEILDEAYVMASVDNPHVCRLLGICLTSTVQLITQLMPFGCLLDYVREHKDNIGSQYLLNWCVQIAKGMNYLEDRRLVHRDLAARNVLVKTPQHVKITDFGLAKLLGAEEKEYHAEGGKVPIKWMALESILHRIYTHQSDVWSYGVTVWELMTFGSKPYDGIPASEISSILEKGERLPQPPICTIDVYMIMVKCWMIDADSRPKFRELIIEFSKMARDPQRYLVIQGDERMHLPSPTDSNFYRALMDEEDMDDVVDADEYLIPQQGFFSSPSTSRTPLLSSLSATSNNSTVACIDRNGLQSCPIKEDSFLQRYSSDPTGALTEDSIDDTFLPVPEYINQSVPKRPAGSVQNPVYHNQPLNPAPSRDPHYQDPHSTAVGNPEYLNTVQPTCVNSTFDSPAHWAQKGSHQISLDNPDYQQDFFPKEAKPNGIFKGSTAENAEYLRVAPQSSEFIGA
# T2 sequence (P04626 whole entry): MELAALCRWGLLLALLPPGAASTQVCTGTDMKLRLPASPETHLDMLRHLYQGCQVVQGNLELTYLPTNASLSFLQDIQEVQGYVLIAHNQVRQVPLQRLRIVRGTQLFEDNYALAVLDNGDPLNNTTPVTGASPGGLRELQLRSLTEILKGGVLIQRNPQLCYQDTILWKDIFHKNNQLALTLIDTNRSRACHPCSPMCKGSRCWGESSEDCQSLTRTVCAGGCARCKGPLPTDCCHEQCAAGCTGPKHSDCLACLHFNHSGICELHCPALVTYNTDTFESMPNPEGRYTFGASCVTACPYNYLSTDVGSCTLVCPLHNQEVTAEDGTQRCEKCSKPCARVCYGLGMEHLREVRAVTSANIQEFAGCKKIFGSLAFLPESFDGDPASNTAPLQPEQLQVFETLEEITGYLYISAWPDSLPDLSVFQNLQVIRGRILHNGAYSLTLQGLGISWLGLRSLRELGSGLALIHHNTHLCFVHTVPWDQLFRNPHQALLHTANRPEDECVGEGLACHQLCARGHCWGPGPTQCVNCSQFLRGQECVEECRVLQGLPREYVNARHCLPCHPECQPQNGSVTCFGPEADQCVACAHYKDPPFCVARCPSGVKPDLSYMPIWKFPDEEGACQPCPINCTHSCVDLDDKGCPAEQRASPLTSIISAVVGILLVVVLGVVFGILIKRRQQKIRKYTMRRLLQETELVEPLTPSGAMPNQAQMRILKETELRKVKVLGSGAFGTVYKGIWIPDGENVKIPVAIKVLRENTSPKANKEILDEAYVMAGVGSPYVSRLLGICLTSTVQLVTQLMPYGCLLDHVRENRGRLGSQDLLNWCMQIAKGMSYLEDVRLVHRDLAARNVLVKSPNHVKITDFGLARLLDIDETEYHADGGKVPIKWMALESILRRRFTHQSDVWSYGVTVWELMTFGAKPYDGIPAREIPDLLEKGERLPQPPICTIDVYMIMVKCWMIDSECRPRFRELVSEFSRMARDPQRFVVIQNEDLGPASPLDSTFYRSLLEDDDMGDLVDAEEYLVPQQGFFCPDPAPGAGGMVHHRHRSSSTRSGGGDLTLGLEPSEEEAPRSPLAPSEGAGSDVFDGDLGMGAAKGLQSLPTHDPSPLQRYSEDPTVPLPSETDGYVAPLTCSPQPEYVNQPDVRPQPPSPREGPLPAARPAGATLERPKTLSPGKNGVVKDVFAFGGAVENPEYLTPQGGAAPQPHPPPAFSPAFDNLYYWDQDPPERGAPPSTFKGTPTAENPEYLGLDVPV
Structure (SMILES),IC50 (NCI-N87 [1]) [nM],IC50 [2] [nM],IC50 (Calu-3 [11]) [nM],IC50 (A-431 [13]) [nM],IC50 (BT-474 [14]) [nM],IC50 (NCI-H1975 [15]) [nM],other results
O=C(/C=C/CN1CCCC1)N1CCOc2cc3ncnc(Nc4ccc(OCc5cccc(F)c5)c(Cl)c4)c3cc21,48,121,177,633,60,1670,Ratio IC50 [3]: 70; IC50 [4]: 4 nM; Ratio IC50 [5]: 3 to 4; Ratio IC50 [6]: 92; IC50 [7]: 7 nM; Ratio IC50 (NCI-H1975 [8]): 4 - 8; Ratio IC50 [9]: 3 to 4; Ratio IC50 (NCI-H1975 [10]): 4 - 8; Ratio IC50 (NCI-H1975 [12]): 4 - 8
O=C(/C=C/CN1CCCCC1)N1CCOc2cc3ncnc(Nc4ccc(OCc5cccc(F)c5)c(Cl)c4)c3cc21,73,116,,788,118,1780,
CS(=O)(=O)CCNCc1ccc(-c2ccc3ncnc(Nc4ccc(OCc5cccc(F)c5)c(Cl)c4)c3c2)o1 [LAPATINIB],53,,216,3590,37,7370,
C#Cc1cccc(Nc2ncnc3cc(OCCOC)c(OCCOC)cc23)c1 [ERLOTINIB],> 10000,,,,> 10000,,
O=C(/C=C/CN1CCCCC1)N1CCCOc2cc3ncnc(Nc4ccc(OCc5cccc(F)c5)c(Cl)c4)c3cc21,> 10000,844,> 10000,> 10000,> 10000,1660,
CN(C)C/C=C/C(=O)N1CCCOc2cc3ncnc(Nc4ccc(OCc5cccc(F)c5)c(Cl)c4)c3cc21,74,446,> 10000,2400,127,> 10000,
O=C(/C=C/CN1CCOCC1)N1CCCOc2cc3ncnc(Nc4ccc(OCc5cccc(F)c5)c(Cl)c4)c3cc21,> 10000,> 10000,> 10000,> 10000,> 10000,> 10000,
CN1CCN(C/C=C/C(=O)N2CCCOc3cc4ncnc(Nc5ccc(OCc6cccc(F)c6)c(Cl)c5)c4cc32)CC1,1840,4870,> 10000,8500,1700,> 10000,
CC1CCN(C/C=C/C(=O)N2CCCOc3cc4ncnc(Nc5ccc(OCc6cccc(F)c6)c(Cl)c5)c4cc32)CC1,838,4870,> 10000,2090,990,> 10000,
CC1CCCCN1C/C=C/C(=O)N1CCOc2cc3ncnc(Nc4ccc(OCc5cccc(F)c5)c(Cl)c4)c3cc21 (stereo not drawn),102,179,,448,127,2310,
CCN(CC)C/C=C/C(=O)N1CCOc2cc3ncnc(Nc4ccc(OCc5cccc(F)c5)c(Cl)c4)c3cc21,37,163,275,612,57,1490,Ratio IC50 [3]: 70; IC50 [4]: 4 nM; Ratio IC50 [5]: 3 to 4; Ratio IC50 [6]: 92; IC50 [7]: 8 nM; Ratio IC50 (NCI-H1975 [8]): 4 - 8; Ratio IC50 [9]: 3 to 4; Ratio IC50 (NCI-H1975 [10]): 4 - 8; Ratio IC50 (NCI-H1975 [12]): 4 - 8
CC1CCN(C/C=C/C(=O)N2CCOc3cc4ncnc(Nc5ccc(OCc6cccc(F)c6)c(Cl)c5)c4cc32)CC1,166,,,1120,200,1220,
CCN(CC)C/C=C/C(=O)N1CCCOc2cc3ncnc(Nc4ccc(OCc5cccc(F)c5)c(Cl)c4)c3cc21,> 10000,80,> 10000,> 10000,116,1490,
O=C(/C=C/Cn1ccnc1)N1CCOc2cc3ncnc(Nc4ccc(OCc5cccc(F)c5)c(Cl)c4)c3cc21,23,120,,2490,48,2000,
CN1CCN(C/C=C/C(=O)N2CCOc3cc4ncnc(Nc5ccc(OCc6cccc(F)c6)c(Cl)c5)c4cc32)CC1,18,45,142,177,25,2310,IC50 [4]: 12 nM; IC50 [7]: 6 nM; Ratio IC50 [9]: 3.7
CC1CCCCN1C/C=C/C(=O)N1CCCOc2cc3ncnc(Nc4ccc(OCc5cccc(F)c5)c(Cl)c4)c3cc21 (stereo not drawn),502,5830,> 10000,> 10000,1010,> 10000,
O=C(/C=C/CN1CCOCC1)N1CCOc2cc3ncnc(Nc4ccc(OCc5cccc(F)c5)c(Cl)c4)c3cc21,11,12,37,127,15,4350,Ratio IC50 (A-431 [16]): >5.9 - 909; Ratio IC50 (Calu-3 [17]): 4.3 - 26.6; IC50 [4]: 12 nM; Ratio IC50 (BT-474 [18]): >5.9 - 909; Ratio IC50 (Calu-3 [19]): 2.5 - 28.3; Ratio IC50 (NCI-N87 [20]): 2.5 - 28.3; Ratio IC50 (BT-474 [21]): 2.5 - 28.3; Ratio IC50 (BT-474 [22]): 4.3 - 26.6; IC50 [7]: 7 nM; Ratio IC50 (Calu-3 [23]): >5.9 - 909; Ratio IC50 (A-431 [24]): 2.5 - 28.3; Ratio IC50 (NCI-N87 [25]): 4.3 - 26.6; Ratio IC50 (A-431 [26]): 4.3 - 26.6; Ratio IC50 (NCI-N87 [27]): >5.9 - 909
CN(C)C/C=C/C(=O)N1CCOc2cc3ncnc(Nc4ccc(OCc5cccc(F)c5)c(Cl)c4)c3cc21,12,126,,258,21,2540,
O=C(/C=C/CN1CCCC1)N1CCCOc2cc3ncnc(Nc4ccc(OCc5cccc(F)c5)c(Cl)c4)c3cc21,109,578,> 10000,791,172,> 10000,
